Source: patent US20240190860A1, “8-CYCLO-SUBSTITUTED QUINAZOLINE DERIVATIVES AS LPA RECEPTOR 2 INHIBITORS” (CHIESI FARMACEUTICI S.p.A., priority 2021, published 2024)

biological target: T1, human recombinant LPA2 expressed in CHO cells (Homo sapiens, UniProt Q9HBW0); experiment: FLIPR calcium mobilization assay, LPA2 antagonism in CHO-hLPA2 cells; assay type: cell-based; settings: CHO-hLPA2 cells, inhibition of LPA EC80 Ca2+ response, 30 min pre-incubation; read-out: LPA2 IC50
T1 construct: expressed in transfected cells; host or cells: CHO cells (CHO-hLPA2 cell line)
Method: The effectiveness of compounds of the present invention as LPA2 antagonist can be determined at the human recombinant LPA2 expressed in CHO cells, using a FLIPR assay in 384 well format.
CHO-hLPA2 cell lines are cultured in a humidified incubator at 5% C02 in DMEM/F-12 (1:1) MIXTURE with 2 mM Glutamax, supplemented with 10% of Foetal Bovine Serum, 1 mM Sodium Pyruvate, 11 mM Hepes and 1× Penicillin/Streptomycin. CHO hLPA2 cells are seeded into black walled clear-bottom 384-well plates (#781091, Greiner Bio-One GmbH) at a density of 7,500 cells per well in 50 μl culture media and grown overnight in a 37° C. humidified CO2-incubator. Serial dilutions (1:3 or 1:4, 11 points CRC) of compounds are performed in 100% DMSO at 200× the final concentration. The compounds are diluted 1:50 prior to the experiment with Assay Buffer (20 mM HEPES, 145 mM NaCl, 5 mM KCl, 5.5 mM glucose, 1 mM MgCl2 and 2 mM CaCl2, pH 7.4 containing 0.01% Pluronic F-127) to obtain a solution corresponding to […] the final concentration in the assay (4×, 2% DMSO). The final concentration of DMSO in the assay will be 0.5% in each well. Medium is removed by aspiration and cells are then incubated with 30 μl of a loading solution containing 5 μM of the cytoplasmic Ca2+ indicator Cal-520 AM in Assay Buffer containing 2.5 mM probenecid for 30 min at 37° C. incubator (cell loading). The loaded cell plates are transferred into the FLIPR instrument and calcium responses are monitored during the on-line addition protocols. For testing of compounds, after the cell loading, 10 μl/well of 4× antagonists' solution was added onto the cells. After 30 min pre-incubation (at 37° C.), 10 μl/well of 5× concentrated LPA EC80 was added and Ca2+ mobilization responses was followed during the on-line addition protocol. Intracellular peak fluorescence values subtracted by baseline fluorescence are exported and analysed to determine IC50 values, respectively. The calcium response is expressed as percentage of the maximal inhibition of the EC80 agonist response.
The raw data (peak height expressed as relative fluorescence units) are normalized and transformed into “percent of inhibition”. Curve fitting and pIC50 (−LogIC50) estimations are carried out using a four-parameter logistic model using XLfit Software.

T1 sequence (Q9HBW0 whole entry): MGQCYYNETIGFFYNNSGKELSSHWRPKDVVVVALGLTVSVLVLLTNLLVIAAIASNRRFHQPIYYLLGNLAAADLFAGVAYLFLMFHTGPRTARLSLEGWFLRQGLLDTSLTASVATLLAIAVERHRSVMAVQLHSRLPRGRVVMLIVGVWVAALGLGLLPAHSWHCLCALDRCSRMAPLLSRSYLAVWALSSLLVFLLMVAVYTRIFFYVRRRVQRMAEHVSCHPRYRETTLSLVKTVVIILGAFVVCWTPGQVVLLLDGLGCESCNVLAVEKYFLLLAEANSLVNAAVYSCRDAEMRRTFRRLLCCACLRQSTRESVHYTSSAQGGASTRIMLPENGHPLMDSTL

Structure (SMILES) | IC50
CC(=O)N1CCc2cc(S(=O)(=O)N3CCN(C[C@H](C)Nc4ncnc5c(-c6ccc(C)nc6)cccc45)CC3)ccc21 [Example 69, 1-[5-({4-[(2S)-2-{[8-(6-methylpyridin-3-yl)quinazolin-4-yl]amino}propyl]piperazin-1-yl}sulfonyl)-2,3-dihydro-1H-indol-1-yl}ethan-1-one] | < 0.01 µM
C[C@@H](CN1CCN(S(=O)(=O)c2ccc3c(c2)sc(=O)n3C)CC1)Nc1ncnc2c(-c3ccc(F)c(CN(C)C)c3)cccc12 [Example 96, 6-({4-[(2S)-2-[(8-{3-[(dimethylamino)methyl]-4-fluorophenyl}quinazolin-4-yl)amino]propyl]piperazin-1-yl}sulfonyl)-3-methyl-2,3-dihydro-1,3-benzothiazol-2-one] | < 0.01 µM
Cc1cc(-c2ccc(S(=O)(=O)N3CCN(C[C@H](C)Nc4ncnc5c(-c6ccncc6)cccc45)CC3)s2)on1 [Example 8, N-[(2S)-1-(4-{[5-(3-methyl-1,2-oxazol-5-yl)thiophen-2-yl]sulfonyl}piperazin-1-yl)propan-2-yl]-8-(pyridin-4-yl)quinazolin-4-amine] | < 0.01 µM
COC(=O)Nc1nc(C)c(S(=O)(=O)N2CCN(C[C@H](C)Nc3ncnc4c(-c5cn(C)nc5C)cccc34)CC2)s1 [Example 63, methyl N-[5-({4-[(2S)-2-{[8-(1,3-dimethyl-1H-pyrazol-4-yl)quinazolin-4-yl]amino}propyl]piperazin-1-yl}sulfonyl)-4-methyl-1,3-thiazol-2-yl]carbamate] | < 0.01 µM
C[C@@H](CN1CCN(S(=O)(=O)c2ccccc2)CC1)Nc1ncnc2c(-c3cn(C)nc3C(F)(F)F)cccc12 [Example 88, N-[(2S)-1-[4-(benzenesulfonyl)piperazin-1-yl]propan-2-yl]-8-[1-methyl-3-(trifluoromethyl)-1H-pyrazol-4-yl]quinazolin-4-amine] | 0.01 to 0.1 µM
COCC(=O)Nc1ncc(S(=O)(=O)N2CCN(C[C@H](C)Nc3ncnc4c(-c5cccnc5)cccc34)CC2)s1 [Example 49, 2-methoxy-N-[5-({4-[(2S)-2-{[8-(pyridin-3-yl)quinazolin-4-yl]amino}propyl]piperazin-1-yl}sulfonyl)-1,3-thiazol-2-yl]acetamide] | 0.01 to 0.1 µM
Cc1ccc(-c2cccc3c(N[C@@H](C)CN4CCN(S(=O)(=O)c5ccc6[nH]c(=O)sc6c5)CC4)ncnc23)cn1 [Example 78, 6-({4-[(2S)-2-{[8-(6-methylpyridin-3-yl)quinazolin-4-yl]amino}propyl]piperazin-1-yl}sulfonyl)-2,3-dihydro-1,3-benzothiazol-2-one] | 0.01 to 0.1 µM
COC(=O)Nc1nc(C)c(S(=O)(=O)N2CCN(C[C@H](C)Nc3ncnc4c(-c5cncnc5)cccc34)CC2)s1 [Example 40, methyl N-[4-methyl-5-({4-[(2S)-2-{[8-(pyrimidin-5-yl)quinazolin-4-yl]amino}propyl]piperazin-1-yl}sulfonyl)-1,3-thiazol-2-yl]carbamate] | < 0.01 µM
COC(=O)Nc1nc(C)c(S(=O)(=O)N2CCN(C[C@H](C)Nc3ncnc4c(-c5ccc(F)c(Cl)n5)cccc34)CC2)s1 [Example 74, methyl N-[5-({4-[(2S)-2-{[8-(6-chloro-5-fluoropyridin-2-yl)quinazolin-4-yl]amino}propyl]piperazin-1-yl}sulfonyl)-4-methyl-1,3-thiazol-2-yl]carbamate] | 0.01 to 0.1 µM
COC(=O)Nc1nc(C)c(S(=O)(=O)N2CCN(C[C@H](C)Nc3ncnc4c(-c5sc(C)nc5C)cccc34)CC2)s1 [Example 1, methyl N-[5-({4-[(2S)-2-{[8-(2,4-dimethyl-1,3-thiazol-5-yl)quinazolin-4-yl]amino}propyl]piperazin-1-yl}sulfonyl)-4-methyl-1,3-thiazol-2-yl]carbamate] | < 0.01 µM
Cc1cc(-c2ccc(S(=O)(=O)N3CCN(C[C@H](C)Nc4ncnc5c(-c6cn(C)nc6C(F)(F)F)cccc45)CC3)s2)on1 [Example 14, N-[(2S)-1-(4-{[5-(3-methyl-1,2-oxazol-5-yl)thiophen-2-yl]sulfonyl}piperazin-1-yl)propan-2-yl]-8-[1-methyl-3-(trifluoromethyl)-1H-pyrazol-4-yl]quinazolin-4-amine] | < 0.01 µM
CC(=O)N1CCc2cc(S(=O)(=O)N3CCN(C[C@H](C)Nc4ncnc5c(-c6cccnc6)cccc45)CC3)ccc21 [Example 43, 1-[5-({4-[(2S)-2-{[8-(pyridin-3-yl)quinazolin-4-yl]amino}propyl]piperazin-1-yl}sulfonyl)-2,3-dihydro-1H-indol-1-yl]ethan-1-one] | < 0.01 µM
CC(=O)Nc1ncc(S(=O)(=O)N2CCN(C[C@H](C)Nc3ncnc4c(-c5cccnc5)cccc34)CC2)s1 [Example 37, N-[5-({4-[(2S)-2-{[8-(pyridin-3-yl)quinazolin-4-yl]amino}propyl]piperazin-1-yl}sulfonyl)-1,3-thiazol-2-yl]acetamide] | < 0.01 µM
C[C@@H](CN1CCN(S(=O)(=O)c2ccc3[nH]c(=O)sc3c2)CC1)Nc1ncnc2c(-c3cccc(CN(C)C)c3)cccc12 [Example 45, 6-({4-[(2S)-2-[(8-{3-[(dimethylamino)methyl]phenyl}quinazolin-4-yl)amino]propyl]piperazin-1-yl}sulfonyl)-2,3-dihydro-1,3-benzothiazol-2-one] | < 0.01 µM
Cc1cc(-c2ccc(S(=O)(=O)N3CCN(C[C@H](C)Nc4ncnc5c(-c6cn(C)nc6C6CC6)cccc45)CC3)s2)on1 [Example 18, 8-(3-cyclopropyl-1-methyl-1H-pyrazol-4-yl)-N-[(2S)-1-(4-{[5-(3-methyl-1,2-oxazol-5-yl)thiophen-2-yl]sulfonyl}piperazin-1-yl)propan-2-yl]quinazolin-4-amine] | < 0.01 µM
COC(=O)Nc1nc(C)c(S(=O)(=O)N2CCN(C[C@H](C)Nc3ncnc4c(-c5c(C)noc5C)cccc34)CC2)s1 [Example 10, methyl N-[5-({4-[(2S)-2-{[8-(3,5-dimethyl-1,2-oxazol-4-yl)quinazolin-4-yl]amino}propyl]piperazin-1-yl}sulfonyl)-4-methyl-1,3-thiazol-2-yl]carbamate] | < 0.01 µM
CC(=O)N1CCc2cc(S(=O)(=O)N3CCN(C[C@H](C)Nc4ncnc5c(-c6cccc(CN(C)C)c6)cccc45)CC3)ccc21 [Example 54, 1-[5-({4-[(2S)-2-[(8-{3-[(dimethylamino)methyl]phenyl}quinazolin-4-yl)amino]propyl]piperazin-1-yl}sulfonyl)-2,3-dihydro-1H-indol-1-yl]ethan-1-one] | < 0.01 µM
COC(=O)Nc1nc(C)c(S(=O)(=O)N2CCN(C[C@H](C)Nc3ncnc4c(-c5cncc(N)c5)cccc34)CC2)s1 [Example 61, methyl N-[5-({4-[(2S)-2-{[8-(5-aminopyridin-3-yl)quinazolin-4-yl]amino}propyl]piperazin-1-yl}sulfonyl)-4-methyl-1,3-thiazol-2-yl]carbamate] | < 0.01 µM
COC(=O)Nc1nc(C)c(S(=O)(=O)N2CCN(C[C@H](C)Nc3ncnc4c(-c5ccnc(C#N)n5)cccc34)CC2)s1 [Example 73, methyl N-[5-({4-[(2S)-2-{[8-(2-cyanopyrimidin-4-yl)quinazolin-4-yl]amino}propyl]piperazin-1-yl}sulfonyl)-4-methyl-1,3-thiazol-2-yl]carbamate] | 0.01 to 0.1 µM
COC(=O)Nc1nc(C)c(S(=O)(=O)N2CCN(C[C@H](C)Nc3ncnc4c(-c5c(C)nn(CCN(C)C)c5C)cccc34)CC2)s1 [Example 101, methyl N-[5-({4-[(2S)-2-[(8-{1-[2-(dimethylamino)ethyl]-3,5-dimethyl-1H-pyrazol-4-yl}quinazolin-4-yl)amino]propyl]piperazin-1-yl}sulfonyl)-4-methyl-1,3-thiazol-2-yl]carbamate] | < 0.01 µM
Cc1cc(-c2ccc(S(=O)(=O)N3CCN(C[C@H](C)Nc4ncnc5c(-c6c(C)noc6C)cccc45)CC3)s2)on1 [Example 3, 8-(3,5-dimethyl-1,2-oxazol-4-yl)-N-[(2S)-1-(4-{[5-(3-methyl-1,2-oxazol-5-yl)thiophen-2-yl]sulfonyl}piperazin-1-yl)propan-2-yl]quinazolin-4-amine] | < 0.01 µM
COC(=O)Nc1nc(C)c(S(=O)(=O)N2CCN(C[C@H](C)Nc3ncnc4c(-c5ccc6c(c5)CNC6)cccc34)CC2)s1 [Example 57, methyl N-[5-({4-[(2S)-2-{[8-(2,3-dihydro-1H-isoindol-5-yl)quinazolin-4-yl]amino}propyl]piperazin-1-yl}sulfonyl)-4-methyl-1,3-thiazol-2-yl]carbamate] | < 0.01 µM
